Consider five molecules from patent US20090246276A1, “Pharmaceutical Compositions” (priority 2008, published 2009).

Series [1] in a line: Example 22: effect of bupropion (Wellbutrin XL 300 mg) on steady-state pharmacokinetics of citalopram (Celexa 20 mg).
Series [2] is described as follows: In-vitro dissolution, 900 ml medium (0.1N HCl, pH 4.5 acetate buffer, pH 6.8 or pH 7.5 phosphate buffer), USP Apparatus 1, 75 rpm, 37° C. The note with it: for % Release: 900 ml Phosphate Buffer, pH 7.5, Apparatus 1, 75 rpm, 37 C. The class given is physicochemical. Here is the method:
The dissolution profile of the above pharmaceutical composition was determined under the dissolution conditions described below in Tables 1A, 1B, and 1C.

A short description of series [3]: Solubility (37° C.) in 0.1N HCl, pH 4.5, pH 6.8. The note with it: 37 °C. The class given is physicochemical.
Where [4] appears, read: steady-state dosing of Celexa 20 mg alone.
Setting [5] is: steady-state dosing of Celexa 20 mg plus Wellbutrin XL 300 mg.

Counter-ions that a name gives are not always drawn.

For `CNCCC[C@]1(c2ccc(F)cc2)OCc2cc(C#N)ccc21` [Desmethylcitalopram, desmethylcitalopram], in series [1] (setting [4]), the “AUC0-τ, Mean” value is 445.9 ng·h/mL; the “Cavg, Mean” value came to 18.6 ng/mL; the “Cmax, Mean” value is 21.7 ng/mL; the “Cmin, Mean” value was 16.3 ng/mL. In series [1] (setting [4]), the “Fluctuation, Mean” value is recorded as 28.93%; the “M/P Ratio, Mean” value is 0.4062; the “MRT, Mean” value was 98.54 h; the “Swing, Mean” value stood at 33.09%. Besides, in series [1] (setting [4]), the “Tmax, Mean” value turned out to be 5.46 h. Further, in series [1] (setting [5]), the “AUC0-τ, Mean” value turned out to be 485.2 ng·h/mL; the “Cavg, Mean” value turned out to be 20.2 ng/mL; the “Cmax, Mean” value came to 23.6 ng/mL; the “Cmin, Mean” value is 17.3 ng/mL. Also, in series [1] (setting [5]), the “Fluctuation, Mean” value amounted to 30.39%; the “M/P Ratio, Mean” value worked out at 0.2814; the “MRT, Mean” value was determined as 85.78 h; the “Swing, Mean” value was 35.98%. Further, in series [1] (setting [5]), the “Tmax, Mean” value amounted to 7.12 h.

Consider `N#Cc1ccc2c(c1)COC2(CCCN)c1ccc(F)cc1` (centres unmarked) [Didesmethylcitalopram, didesmethylcitalopram], for which, in series [1] (setting [4]), the “AUC0-τ, Mean” value stood at 92.04 ng·h/mL; the “Cavg, Mean” value turned out to be 3.84 ng/mL; the “Cmax, Mean” value came out at 4.40 ng/mL; the “Cmin, Mean” value was determined as 3.42 ng/mL. In series [1] (setting [4]), the “Fluctuation, Mean” value is given as 26.43%; the “M/P Ratio, Mean” value came out at 0.09587; the “MRT, Mean” value was determined as 258.96 h; the “Swing, Mean” value stood at 29.97%. For the same molecule, the “Tmax, Mean” value in series [1] (setting [4]) amounted to 6.41 h.

On to `CN(C)CCCC1(c2ccc(F)cc2)OCc2cc(C#N)ccc21` (centres unmarked) [Citalopram, citalopram], for which, in series [1] (both, human, in vivo, 20 mg), the AUC is 1220 ng·h/mL, the Cmax worked out at 67.9 ng/mL, the MRT came out at 48.6 h and the Tmax came to 3.96 h. Further, the Vd/F in series [1] (both, human, in vivo, 20 mg) was determined as 750 L. Further, in series [1] (setting [4]), the “CL/F, Mean” value was 17.66 L/h; the “Cavg, Mean” value is on record as 50.8 ng/mL; the “Cmin, Mean” value amounted to 39.5 ng/mL; the “Fluctuation, Mean” value amounted to 57.22%. Moreover, the “Swing, Mean” value in series [1] (setting [4]) amounted to 75.55%. In addition, in series [1] (setting [5]), the “CL/F, Mean” value turned out to be 11.04 L/h; the “Cavg, Mean” value is 78.2 ng/mL; the “Cmin, Mean” value is 61.6 ng/mL; the “Fluctuation, Mean” value is on record as 48.46%. Besides, the “Swing, Mean” value in series [1] (setting [5]) is 62.15%.

Take `COc1cccc(C2(O)CCCCC2CN(C)C)c1` (centres unmarked) [Tramadol HCl, tramadol HCl]: the “% Released” value is given as 10% in series [2] (Example 20 tablet, 0.1N HCl, 0.5 hr); 33% in series [2] (Example 20 tablet, 0.1N HCl, 1 hr); 73% in series [2] (Example 20 tablet, 0.1N HCl, 2 hr); 96% in series [2] (Example 20 tablet, 0.1N HCl, 3 hr); 104% in series [2] (Example 20 tablet, 0.1N HCl, 4 hr); 106% in series [2] (Example 20 tablet, 0.1N HCl, 5 hr). In addition, the “% Released” value in series [2] (Example 20 tablet, 0.1N HCl, 6 hr) is 106%; in series [2] (Example 20 tablet, 0.1N HCl, 8 hr), 106%; in series [2] (Example 20 tablet, 0.1N HCl, 10 hr), 105%; in series [2] (Example 20 tablet, 0.1N HCl, 12 hr), 105%; in series [2] (Example 20 tablet, pH 6.8 phosphate buffer, 0.5 hr), 9%; in series [2] (Example 20 tablet, pH 6.8 phosphate buffer, 1 hr) it was 32%. Moreover, the “% Released” value in series [2] (Example 20 tablet, pH 6.8 phosphate buffer, 2 hr) came to 75%; in series [2] (Example 20 tablet, pH 6.8 phosphate buffer, 3 hr), 98%; in series [2] (Example 20 tablet, pH 6.8 phosphate buffer, 4 hr) it was 105%; in series [2] (Example 20 tablet, pH 6.8 phosphate buffer, 5 hr), 107%; in series [2] (Example 20 tablet, pH 6.8 phosphate buffer, 6 hr), 107%; in series [2] (Example 20 tablet, pH 6.8 phosphate buffer, 8 hr) it was 107%. Moreover, the “% Released” value is on record as 107% in series [2] (Example 20 tablet, pH 6.8 phosphate buffer, 10 hr); 107% in series [2] (Example 20 tablet, pH 6.8 phosphate buffer, 12 hr); 18% in series [2] (Example 29 controlled release tablet (batch no. 08070T), 900 ml 0.1N HCl, USP Apparatus 1, 75 rpm, 37° C., 0.5 hr); 28% in series [2] (Example 29 controlled release tablet (batch no. 08070T), 900 ml 0.1N HCl, USP Apparatus 1, 75 rpm, 37° C., 1 hr); 42% in series [2] (Example 29 controlled release tablet (batch no. 08070T), 900 ml 0.1N HCl, USP Apparatus 1, 75 rpm, 37° C., 2 hr); 53% in series [2] (Example 29 controlled release tablet (batch no. 08070T), 900 ml 0.1N HCl, USP Apparatus 1, 75 rpm, 37° C., 3 hr). The “% Released” value in series [2] (Example 29 controlled release tablet (batch no. 08070T), 900 ml 0.1N HCl, USP Apparatus 1, 75 rpm, 37° C., 4 hr) was 62%; in series [2] (Example 29 controlled release tablet (batch no. 08070T), 900 ml 0.1N HCl, USP Apparatus 1, 75 rpm, 37° C., 5 hr), 70%; in series [2] (Example 29 controlled release tablet (batch no. 08070T), 900 ml 0.1N HCl, USP Apparatus 1, 75 rpm, 37° C., 6 hr), 76%; in series [2] (Example 29 controlled release tablet (batch no. 08070T), 900 ml 0.1N HCl, USP Apparatus 1, 75 rpm, 37° C., 8 hr) it was 86%; in series [2] (Example 29 controlled release tablet (batch no. 08070T), 900 ml 0.1N HCl, USP Apparatus 1, 75 rpm, 37° C., 10 hr), 93%; in series [2] (Example 29 controlled release tablet (batch no. 08070T), 900 ml 0.1N HCl, USP Apparatus 1, 75 rpm, 37° C., 12 hr), 97%. Besides, the “% Released” value in series [2] (Example 29 controlled release tablet (batch no. 08070T), 900 ml pH 6.8 phosphate buffer, USP Apparatus 1, 75 rpm, 37° C., 0.5 hr) is reported as 19%; in series [2] (Example 29 controlled release tablet (batch no. 08070T), 900 ml pH 6.8 phosphate buffer, USP Apparatus 1, 75 rpm, 37° C., 1 hr), 29%; in series [2] (Example 29 controlled release tablet (batch no. 08070T), 900 ml pH 6.8 phosphate buffer, USP Apparatus 1, 75 rpm, 37° C., 2 hr) it was 44%; in series [2] (Example 29 controlled release tablet (batch no. 08070T), 900 ml pH 6.8 phosphate buffer, USP Apparatus 1, 75 rpm, 37° C., 3 hr), 55%; in series [2] (Example 29 controlled release tablet (batch no. 08070T), 900 ml pH 6.8 phosphate buffer, USP Apparatus 1, 75 rpm, 37° C., 4 hr), 65%; in series [2] (Example 29 controlled release tablet (batch no. 08070T), 900 ml pH 6.8 phosphate buffer, USP Apparatus 1, 75 rpm, 37° C., 5 hr), 72%. Also, the “% Released” value in series [2] (Example 29 controlled release tablet (batch no. 08070T), 900 ml pH 6.8 phosphate buffer, USP Apparatus 1, 75 rpm, 37° C., 6 hr) was 79%; in series [2] (Example 29 controlled release tablet (batch no. 08070T), 900 ml pH 6.8 phosphate buffer, USP Apparatus 1, 75 rpm, 37° C., 8 hr) it was 90%; in series [2] (Example 29 controlled release tablet (batch no. 08070T), 900 ml pH 6.8 phosphate buffer, USP Apparatus 1, 75 rpm, 37° C., 10 hr), 98%; in series [2] (Example 29 controlled release tablet (batch no. 08070T), 900 ml pH 6.8 phosphate buffer, USP Apparatus 1, 75 rpm, 37° C., 12 hr), 102%. In addition, the “% Release” value in series [2] (Example 27 controlled release tablet (batch 1258-171), 2 hrs) came to 51%; in series [2] (Example 27 controlled release tablet (batch 1258-171), 4 hrs), 70%; in series [2] (Example 27 controlled release tablet (batch 1258-171), 8 hrs), 96%; in series [2] (Example 27 controlled release tablet (batch 1258-171), 10 hrs), 100%; in series [2] (Example 27 controlled release tablet (batch 1258-171), 16 hrs), 100%; in series [2] (Example 28 controlled release tablet (batch 1258-175), 2 hrs) it was 0%. Further, the “% Release” value in series [2] (Example 28 controlled release tablet (batch 1258-175), 4 hrs) was 7%; in series [2] (Example 28 controlled release tablet (batch 1258-175), 8 hrs), 61%; in series [2] (Example 28 controlled release tablet (batch 1258-175), 10 hrs), 74%; in series [2] (Example 28 controlled release tablet (batch 1258-175), 16 hrs) it was 84%.

As to `OCCOCCN1CCN(C2=Nc3ccccc3Sc3ccccc32)CC1` [Quetiapine Fumarate, quetiapine fumarate], the solubility was 41000 µg/mL in series [3] (0.1N HCl, simulated gastric fluid); 3000 µg/mL in series [3] (pH 4.5, aqueous buffer, pH 4.5); 300 µg/mL in series [3] (pH 6.8, aqueous buffer, pH 6.8). Besides, the “% Released” value in series [2] (Example 17 tablet, 0.1N HCl, 1 hr) is given as 18%; in series [2] (Example 17 tablet, 0.1N HCl, 2 hr), 39%; in series [2] (Example 17 tablet, 0.1N HCl, 4 hr), 69%; in series [2] (Example 17 tablet, 0.1N HCl, 8 hr) it was 98%; in series [2] (Example 17 tablet, 0.1N HCl, 12 hr), 97%; in series [2] (Example 17 tablet, 0.1N HCl, 16 hr) it was 96%. Further, the “% Released” value in series [2] (Example 17 tablet, pH 6.8 phosphate buffer, 1 hr) was 2%; in series [2] (Example 17 tablet, pH 6.8 phosphate buffer, 2 hr) it was 10%; in series [2] (Example 17 tablet, pH 6.8 phosphate buffer, 4 hr) it was 41%; in series [2] (Example 17 tablet, pH 6.8 phosphate buffer, 8 hr), 76%; in series [2] (Example 17 tablet, pH 6.8 phosphate buffer, 12 hr) it was 93%; in series [2] (Example 17 tablet, pH 6.8 phosphate buffer, 16 hr), 95%.
